Measured values reported in patent publication US7915235B2, “High affinity ligands bind to clostridium difficile toxin A” (priority 2006, dated 2011).
Where “and” joins values, the source holds several entries; their conditions need not be identical. Identical values can stand only once.

Key:
[1] = biological target: Clostridium difficile toxin A (Clostridioides difficile, UniProt P16154); settings: toxin A applied at 200 micrograms/ml; detected with PCG4 antibody and goat anti-mouse Alexa488
[2] = tested on: C. difficile-associated diarrhea (CDAD); settings: oral metronidazole 500 mg TID; oral vancomycin 125 mg every 6 h; cited from earlier work
[3] = tested on: C. difficile associated diarrhea; settings: cited from earlier work

Molecule	fluorescence (FL) signal [1]	other results
NeuAca2-3Galb1-3(Fuca1-4)GlcNAcb1-3Galb1-4(Fuca1-3)GlcNAcb-	14911	–
GalNAca1-3(Fuca1-2)Galb1-4(Fuca1-3)GlcNAcb-	327	–
CC(=O)N[C@@H]1[C@@H](O)[C@H](O[C@@H]2O[C@H](CO)[C@H](O)[C@H](O[C@@H]3O[C@H](CO)[C@H](O)[C@H](O)[C@H]3O)[C@H]2O)[C@@H](CO)O[C@H]1O [Galb1-3Galb1-4GlcNAcb]	172	–
NeuAca2-3Galb1-3GlcNAcb1-3Galb1-4GlcNAcb-	4435	–
Gala1-3Galb1-4(Fuca1-3)GlcNAcb-	1814	–
Galb1-3(Fuca1-4)GlcNAcb1-3Galb1-4GlcNAcb-	29098	–
GalNAca1-3(Fuca1-2)Galb1-4GlcNAcb-	188	–
Cc1ncc([N+](=O)[O-])n1CCO [metronidazole]	–	response rates [2]: ~90%
Gala1-3(Fuca1-2)Galb1-4(Fuca1-3)GlcNAcb-	789	–
CN[C@H](CC(C)C)C(=O)N[C@H]1C(=O)N[C@@H](CC(N)=O)C(=O)N[C@H]2C(=O)N[C@H]3C(=O)N[C@H](C(=O)N[C@H](C(=O)O)c4cc(O)cc(O)c4-c4cc3ccc4O)[C@H](O)c3ccc(c(Cl)c3)Oc3cc2cc(c3O[C@@H]2O[C@H](CO)[C@@H](O)[C@H](O)[C@H]2O[C@H]2C[C@](C)(N)[C@H](O)[C@H](C)O2)Oc2ccc(cc2Cl)[C@H]1O [vancomycin]	–	definitive recurrence rate ([3]; per protocol population with recurrent CDAD at enrollment, vancomycin or 6 g tolevamer): 27%; definitive recurrence rate confirmed by a positive toxin assay ([3]; per protocol population, 125 mg vancomycin QID or 6 g tolevamer): 19%; response rates [2]: ~90%
CC(=O)N[C@@H]1[C@@H](O[C@@H]2O[C@@H](C)[C@@H](O)[C@@H](O)[C@@H]2O)[C@H](O[C@@H]2O[C@H](CO)[C@H](O)[C@H](O)[C@H]2O)[C@@H](CO)O[C@H]1O [Lewis×, Galb1-4[Fuca1-3]GlcNAcb]	122 and 218	–
